Values quoted from earlier work as cited in US10493079B2, “Stable carfilzomib formulations” (Cipla Limited, priority 2016, dated 2019).

In the case of `CC(C)C[C@H](NC(=O)[C@H](CCc1ccccc1)NC(=O)CN1CCOCC1)C(=O)N[C@@H](Cc1ccccc1)C(=O)N[C@@H](CC(C)C)C(=O)[C@@]1(C)CO1` [carfilzomib], the aqueous solubility is given as “extremely low”.
